The values below come from patent EP3290412A1, “HIV-1 NUCLEOCAPSID INHIBITORS” (Università degli Studi di Siena, priority 2016, dated 2018).

Test [1] has as its target NC(11-55) (Human immunodeficiency virus type 1, UniProt P12493). In words: NC inhibition assay (NC-induced cTAR DNA destabilization, fluorescence). In kind it is biochemical, HIV-1. Particulars: single point screening; positive = >25% inhibition at 100µM. The method in brief: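 Doubly labelled cTAR (0.1 µM, Alexa488/Dabcyl) pre-complexed with 1 µM Zn-loaded NC(11-55) for 15 min, then compound added for a further 15 min; run at 20 °C in Tris-HCl pH 7.5, 30 mM NaCl, 0.2 mM MgCl2. Fluorescence read at ex 480/em 520 nm. IC50 taken from dose-response fit of % inhibition of NC-induced fluorescence increase.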

For test [2], the target named is T1, full length (1-55) HIV-1 NCp7 (Human immunodeficiency virus type 1 group M subtype B, UniProt P12493).
T1 construct: recombinant full length (1-55) HIV-1 NCp7 proteins; made in house
In words: Electromobility Shift Assay (EMSA), competition for ssDNA binding. The settings on record: NCp7 300 nM, M13mp18 ssDNA; positive = >25% inhibition at 100µM. The method in brief: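 Recombinant NL4-3 NCp7 (300 nM in the pre-mix) was combined with compound in 20 mM Tris-HCl pH 7.4, 2 mM MgCl2, 100 mM NaCl, 1 mM DTT, then M13mp18 ssDNA was added for 25 min at 37 °C. Complexes were run on 1% agarose/0.5x TBE and stained with SybrGold. IC50 is the concentration at which bound ssDNA migrated 50% of the bound–unbound distance (triplicate).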
In general terms: Mobility shift assays separate free from complexed probe on a gel.

The inhibition is the relative decrease from the control value, in per cent.

Where only a bound is given, the exact number is not on record here.

Regarding `C[C@H](NC(=O)c1nc(-c2ccc(C(=O)OCc3ccccc3)cn2)nc(O)c1O)C1CCCCC1` [Compound 70, benzyl (S)-6-(4-((1-cyclohexylethyl)carbamoyl)-5,6-dihydroxypyrimidin-2-yl)nicotinate], the inhibition at 100 µM in test [1] is above 25%. Also, the EMSA screening results in test [2] is “Positive (A compound showing >25% inhibition when tested at 100µM concentration is considered as "positive")”.
Taken in the same sequence, the figures for `C[C@@H](NC(=O)c1nc(-c2cc(C(=O)NCc3ccccc3)ccn2)nc(O)c1O)C1CCCCC1` [Compound 74, (R)-2-(4-(benzylcarbamoyl)pyridin-2-yl)-N-(1-cyclohexylethyl)-5,6-dihydroxypyrimidine-4-carboxamide] were above 25% and “Positive (A compound showing >25% inhibition when tested at 100µM concentration is considered as "positive")”.
For `C[C@H](NC(=O)c1nc(-c2ccc3ccccc3n2)nc(O)c1O)C1CCCCC1` [Compound 75, (S)-N-(1-cyclohexylethyl)-5,6-dihydroxy-2-(quinolin-2-yl)pyrimidine-4-carboxamide], in that order: above 25% and “Positive (A compound showing >25% inhibition when tested at 100µM concentration is considered as "positive")”.
As to `Cc1cc(-c2nc(O)c(O)c(C(=O)N[C@H](C)C3CCCCC3)n2)nc2ccccc12` [Compound 73, (R)-N-(1-cyclohexylethyl)-5,6-dihydroxy-2-(4-methylquinolin-2-yl)pyrimidine-4-carboxamide], in test [1], the inhibition at 100 µM is above 25%. Besides, the EMSA screening results in test [2] was “Positive (A compound showing >25% inhibition when tested at 100µM concentration is considered as "positive")”.
In test [1], `C[C@H](NC(=O)c1nc(-c2cc3ccccc3cn2)nc(O)c1O)C1CCCCC1` [Compound 72, (S)-N-(1-cyclohexylethyl)-5,6-dihydroxy-2-(isoquinolin-3-yl)pyrimidine-4-carboxamide] returned an inhibition at 100 µM above 25%. The EMSA screening results in test [2] is “Positive (A compound showing >25% inhibition when tested at 100µM concentration is considered as "positive")”.
Consider `Cc1ccnc(-c2nc(O)c(O)c(C(=O)NC3(C4CCCCC4)CC3)n2)c1` [Compound 84, N-(1-cyclohexylcyclopropyl)-5,6-dihydroxy-2-(4-methylpyridin-2-yl)pyrimidine-4-carboxamide], for which the inhibition at 100 µM in test [1] was above 25%. Further, in test [2], the EMSA screening results is on record as “Positive (A compound showing >25% inhibition when tested at 100µM concentration is considered as "positive")”.
With `C[C@H](NC(=O)c1nc(-c2cc(C(=O)OCc3ccccc3)ccn2)nc(O)c1O)C1CCCCC1` [Compound 71, benzyl (S)-2-(4-((1-cyclohexylethyl)carbamoyl)-5,6-dihydroxypyrimidin-2-yl)isonicotinate], in test [1], the inhibition at 100 µM was above 25%. For the same compound, the EMSA screening results in test [2] is “Positive (A compound showing >25% inhibition when tested at 100µM concentration is considered as "positive")”.
In the case of `CC(NC(=O)c1nc(-c2nccc3ccccc23)nc(O)c1O)C1CCC(F)(F)CC1` (stereo not shown) [Compound 90, N-(1-(4,4-difluorocyclohexyl)ethyl)-5,6-dihydroxy-2-(isoquinolin-1-yl)pyrimidine-4-carboxamide], the inhibition at 100 µM in test [1] is above 25%. Also, the EMSA screening results in test [2] is listed as “Positive (A compound showing >25% inhibition when tested at 100µM concentration is considered as "positive")”.
